The supplement of paper PMC10307832

Legend:
Test in all cases: relative viability (nuclei count vs DMSO), 5 days (fraction); higher = more cells survive
Pictilisib + Navitoclax = compound: CS(=O)(=O)N1CCN(Cc2cc3nc(-c4cccc5[nH]ncc45)nc(N4CCOCC4)c3s2)CC1 [Pictilisib] + CC1(C)CCC(c2ccc(Cl)cc2)=C(CN2CCN(c3ccc(C(=O)NS(=O)(=O)c4ccc(N[C@H](CCN5CCOCC5)CSc5ccccc5)c(S(=O)(=O)C(F)(F)F)c4)cc3)CC2)C1 [Navitoclax] (partner 0.5 µM)
Summary of the method: (§1)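 Lung cancer cell lines were pin-tool dosed in 1536-well plates on the day after seeding, with either a lone drug or a fixed anchor-drug dose plus five library-drug doses (not always all listed) in √10 steps. Nuclei were counted on 4× images after 5 days. Relative viability is the ratio of treated-well to vehicle-well nuclei counts, with each value a median of duplicate plates.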

Pictilisib + Foretinib = compound: CS(=O)(=O)N1CCN(Cc2cc3nc(-c4cccc5[nH]ncc45)nc(N4CCOCC4)c3s2)CC1 [Pictilisib] + COc1cc2c(Oc3ccc(NC(=O)C4(C(=O)Nc5ccc(F)cc5)CC4)cc3F)ccnc2cc1OCCCN1CCOCC1 [Foretinib] (partner 0.25 µM)
Summary of the method: as §1

Pictilisib + Decitabine = compound: CS(=O)(=O)N1CCN(Cc2cc3nc(-c4cccc5[nH]ncc45)nc(N4CCOCC4)c3s2)CC1 [Pictilisib] + Nc1ncn([C@H]2C[C@H](O)[C@@H](CO)O2)c(=O)n1 [Decitabine] (partner 2 µM)
Summary of the method: as §1

MK-2206 + Trametinib = compound: NC1(c2ccc(-c3nc4ccn5c(=O)[nH]nc5c4cc3-c3ccccc3)cc2)CCC1 [MK-2206] + CC(=O)Nc1cccc(-n2c(=O)n(C3CC3)c(=O)c3c(Nc4ccc(I)cc4F)n(C)c(=O)c(C)c32)c1 [Trametinib] (partner 0.02 µM)
Summary of the method: as §1

MK-2206 + Navitoclax = compound: NC1(c2ccc(-c3nc4ccn5c(=O)[nH]nc5c4cc3-c3ccccc3)cc2)CCC1 [MK-2206] + CC1(C)CCC(c2ccc(Cl)cc2)=C(CN2CCN(c3ccc(C(=O)NS(=O)(=O)c4ccc(N[C@H](CCN5CCOCC5)CSc5ccccc5)c(S(=O)(=O)C(F)(F)F)c4)cc3)CC2)C1 [Navitoclax] (partner 0.5 µM)
Summary of the method: as §1

Cell Line | relative viability (Pictilisib + Navitoclax; first compound 0.02 µM) | relative viability (Pictilisib + Navitoclax; first compound 0.06325 µM) | relative viability (Pictilisib + Navitoclax; first compound 0.6325 µM) | relative viability (Pictilisib + Navitoclax; first compound 2 µM) | relative viability (Pictilisib + Foretinib; first compound 0.02 µM) | relative viability (Pictilisib + Foretinib; first compound 0.06325 µM) | relative viability (Pictilisib + Foretinib; first compound 0.6325 µM) | relative viability (Pictilisib + Foretinib; first compound 2 µM) | relative viability (Pictilisib + Decitabine; first compound 0.02 µM) | relative viability (Pictilisib + Decitabine; first compound 0.06325 µM) | relative viability (Pictilisib + Decitabine; first compound 0.6325 µM) | relative viability (Pictilisib + Decitabine; first compound 2 µM) | relative viability (MK-2206 + Trametinib; first compound 0.01 µM) | relative viability (MK-2206 + Trametinib; first compound 0.03162 µM) | relative viability (MK-2206 + Trametinib; first compound 0.3162 µM) | relative viability (MK-2206 + Trametinib; first compound 1 µM) | relative viability (MK-2206 + Navitoclax; first compound 0.01 µM) | relative viability (MK-2206 + Navitoclax; first compound 0.03162 µM) | relative viability (MK-2206 + Navitoclax; first compound 0.3162 µM) | relative viability (MK-2206 + Navitoclax; first compound 1 µM)
NCI-H2085 | 1.08 | 1.17 | 0.864 | 0.416 | 0.858 | 0.811 | 0.572 | 0.329 | 0.521 | 0.631 | 0.511 | 0.369 | 0.527 | 0.52 | 0.292 | 0.36 | 1.09 | 1.19 | 0.902 | 0.825
NCI-H3122 | 0.986 | 1.04 | 0.966 | 0.475 | 0.998 | 0.997 | 0.973 | 0.785 | 0.443 | 0.412 | 0.287 | 0.115 | 0.237 | 0.234 | 0.198 | 0.211 | 1.02 | 1.03 | 1.01 | 0.958
HCC-827 | 1.11 | 0.978 | 1.02 | 0.865 | 0.996 | 1.04 | 0.931 | 0.392 | 0.258 | 0.363 | 0.288 | 0.311 | 0.541 | 0.548 | 0.491 | 0.444 | 1.06 | 1.12 | 1.04 | 1.01
HARA | 1.2 | 1.13 | 1.09 | 1.08 | 0.828 | 0.906 | 0.851 | 0.581 | 0.605 | 0.64 | 0.453 | 0.307 | 0.63 | 0.553 | 0.677 | 0.788 | 1.08 | 1.11 | 1.24 | 1.17
NCI-H441 | 0.856 | 0.64 | 0.505 | 0.413 | 0.929 | 0.749 | 0.745 | 0.539 | 0.263 | 0.234 | 0.265 | 0.281 | 0.532 | 0.447 | 0.28 | 0.333 | 0.77 | 0.639 | 0.6 | 0.505
SK-MES-1 | 1.21 | 1.19 | 0.89 | 0.431 | 1.02 | 0.86 | 0.494 | 0.271 | 0.351 | 0.388 | 0.359 | 0.339 | 0.519 | 0.47 | 0.467 | 0.515 | 1.29 | 1.2 | 1.01 | 1.1
HCC-15 | 0.634 | 0.644 | 0.601 | 0.328 | 1.07 | 0.966 | 0.852 | 0.659 | 0.668 | 0.609 | 0.406 | 0.369 | 0.362 | 0.387 | 0.309 | 0.295 | 0.687 | 0.622 | 0.617 | 0.62
EPLC-272H | 1.32 | 1.05 | 1.01 | 0.733 | 0.711 | 0.687 | 0.376 | 0.173 | 0.428 | 0.371 | 0.319 | 0.171 | 0.266 | 0.307 | 0.298 | 0.312 | 0.915 | 1.18 |  | 1.08
NCI-H2009 | 1.16 | 1.19 | 1.15 | 0.958 | 1.28 | 1.17 | 1.13 | 0.812 | 0.443 | 0.406 | 0.412 | 0.329 | 0.252 | 0.299 | 0.248 | 0.254 | 1.12 | 1.15 | 1.17 | 1.13
NCI-H520 | 1.17 | 1.24 | 0.599 | 0.134 | 0.695 | 0.694 | 0.4 | 0.244 | 0.492 | 0.478 | 0.237 | 0.168 | 0.833 | 0.569 | 0.277 | 0.187 | 1.11 | 1.09 | 0.701 | 0.489
NCI-H2405 | 0.981 | 0.871 | 0.594 | 0.5 | 1.01 | 0.965 | 0.847 | 0.562 | 0.765 | 0.72 | 0.571 | 0.388 | 0.697 | 0.682 | 0.668 | 0.533 | 0.838 | 1.06 | 0.83 | 0.779
LCLC-97TM1 | 0.288 | 0.768 | 0.221 | 0.107 | 0.991 | 0.972 | 0.714 | 0.239 | 0.244 | 0.238 | 0.169 | 0.18 | 0.195 | 0.205 | 0.191 | 0.206 | 0.522 | 0.499 | 0.404 | 0.361
NCI-H727 | 0.55 | 0.433 | 0.303 | 0.156 | 0.76 | 0.843 | 0.672 | 0.467 | 0.651 | 0.979 | 0.699 | 0.781 | 0.402 | 0.382 | 0.388 | 0.37 | 0.424 | 0.367 | 0.212 | 0.314
LK-2 | 0.879 | 0.585 | 0.63 | 0.321 | 0.999 | 0.885 | 0.812 | 0.347 | 0.238 | 0.302 | 0.197 | 0.163 | 0.826 | 0.775 | 0.694 | 0.602 | 0.837 | 0.938 | 0.684 | 0.61
PC-3 [JPC-3] | 0.758 | 0.749 | 0.803 | 0.496 | 1.01 | 1.09 | 0.931 | 0.827 | 0.84 | 0.92 | 0.813 | 0.748 | 0.686 | 0.804 | 0.599 | 0.735 | 0.817 | 0.849 | 0.83 | 0.825
